Data on 13 compounds can be found in BindingDB's records for doi:10.1007/s00044-013-0847-2 (n/a, 2013).

One may read the IC50 as the point on the concentration scale where inhibition reaches its midpoint.

Experiment [1] addresses Cholinesterase (Homo sapiens, UniProt P06276). In words: Inhibition of BChE (unknown origin) using butyryl thiocholine iodide as substrate after 30 mins by Ellman's method.
Experiment [2] concerns the target Acetylcholinesterase (Homo sapiens, UniProt P22303). Description: Inhibition of AChE (unknown origin) using acetyl thiocholine iodide as substrate after 30 mins by Ellman's method.

Chain of Cholinesterase (P06276 whole entry): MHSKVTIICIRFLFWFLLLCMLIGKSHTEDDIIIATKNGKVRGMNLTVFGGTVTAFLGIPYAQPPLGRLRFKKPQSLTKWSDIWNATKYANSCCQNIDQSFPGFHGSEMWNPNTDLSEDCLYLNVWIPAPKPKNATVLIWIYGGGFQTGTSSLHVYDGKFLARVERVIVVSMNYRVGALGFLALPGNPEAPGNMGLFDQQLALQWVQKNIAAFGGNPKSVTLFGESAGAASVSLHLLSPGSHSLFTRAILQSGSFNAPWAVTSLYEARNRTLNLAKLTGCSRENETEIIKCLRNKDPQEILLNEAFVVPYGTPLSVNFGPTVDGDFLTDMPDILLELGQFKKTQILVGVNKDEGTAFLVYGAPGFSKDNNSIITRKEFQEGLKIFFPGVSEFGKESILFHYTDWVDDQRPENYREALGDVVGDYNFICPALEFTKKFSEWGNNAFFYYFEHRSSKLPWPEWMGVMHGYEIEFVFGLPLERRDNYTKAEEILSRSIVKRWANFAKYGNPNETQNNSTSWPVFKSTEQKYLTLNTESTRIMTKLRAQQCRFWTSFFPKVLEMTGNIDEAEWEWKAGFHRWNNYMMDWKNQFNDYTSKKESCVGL
Chain of Acetylcholinesterase (P22303 whole entry): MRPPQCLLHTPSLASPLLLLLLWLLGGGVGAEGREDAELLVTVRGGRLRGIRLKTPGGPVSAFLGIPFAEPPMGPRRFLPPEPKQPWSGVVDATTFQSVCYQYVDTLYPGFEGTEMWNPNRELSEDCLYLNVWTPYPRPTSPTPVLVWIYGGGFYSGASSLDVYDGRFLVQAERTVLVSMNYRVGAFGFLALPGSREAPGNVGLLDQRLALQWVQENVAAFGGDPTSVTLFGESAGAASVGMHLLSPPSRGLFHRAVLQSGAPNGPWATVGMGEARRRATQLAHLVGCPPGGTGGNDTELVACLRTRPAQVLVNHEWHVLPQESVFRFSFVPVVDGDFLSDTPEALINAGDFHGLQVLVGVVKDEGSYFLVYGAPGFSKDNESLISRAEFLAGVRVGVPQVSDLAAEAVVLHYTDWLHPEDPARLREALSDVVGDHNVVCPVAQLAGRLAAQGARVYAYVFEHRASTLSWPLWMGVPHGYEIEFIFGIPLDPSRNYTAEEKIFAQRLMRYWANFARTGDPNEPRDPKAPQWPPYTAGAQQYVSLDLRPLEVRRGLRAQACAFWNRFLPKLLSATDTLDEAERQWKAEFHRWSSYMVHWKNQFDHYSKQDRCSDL

Regarding `O=C1NC(=O)C(=CNNC(=S)Nc2cccc(C(F)(F)F)c2)C(=O)N1`, the IC50 is 136 µM in experiment [1] and 40.7 µM in experiment [2].

As to `O=C1NC(=S)NC(=O)C1=CNNC(=S)Nc1ccc(Cl)cc1`, the IC50 in experiment [1] came to 75.4 µM; in experiment [2] it was 121 µM. The like results for `O=C1NC(=S)NC(=O)C1=CNNC(=S)Nc1ccccc1` were, in that order, 57.1 µM and 115 µM. In the case of `NC(=S)NNC=C1C(=O)NC(=O)NC1=O`, the IC50 was found to be 56.5 µM in experiment [1] and 119 µM in experiment [2].

As for `CC(=O)NC=C1C(=O)NC(=O)NC1=O`, the IC50 worked out at 116 µM in experiment [1] and 90.9 µM in experiment [2].

Take `O=C1NC(=S)NC(=O)C1=CNNC(=S)Nc1ccc(C(F)(F)F)cc1`: the IC50 is 8.1 µM in experiment [1] and 99.4 µM in experiment [2]. Turning to `O=C(NNC=C1C(=O)NC(=S)NC1=O)Nc1ccccc1`, the IC50 came to 3.31 µM in experiment [1] and 74.2 µM in experiment [2].

In the case of `COc1ccc(NC(=S)NNC=C2C(=O)NC(=S)NC2=O)cc1`, the results for the IC50 in experiment [1] and in experiment [2] were 56.8 µM and 206 µM, respectively. The like results for `O=C1NC(=S)NC(=O)C1=CNNC(=S)Nc1ccc(Br)cc1` were, in that order, 68.4 µM and 79.2 µM. `N#Cc1ccc(NC(=S)NNC=C2C(=O)NC(=O)NC2=O)cc1` returned an IC50 in experiment [1] of 231 µM.

Consider `O=C1NC(=S)NC(=O)C1=CNNC(=S)Nc1ccc(F)cc1`, for which the figures for the IC50 in experiment [1] and in experiment [2] were 57.8 µM and 78.4 µM, respectively. On to `Cc1cccc(Cl)c1NC(=S)NNC=C1C(=O)NC(=O)NC1=O`, for which the IC50 in experiment [1] was determined as 8.81 µM.

As for `O=C1NC(=O)C(=CNNC(=O)Nc2ccccc2)C(=O)N1`, in experiment [1], the midpoint of inhibition, the IC50, lay at 38.5 µM.
